For assay [1], the target named is Histone-lysine N-methyltransferase SETD7 (Homo sapiens) (UniProt Q8WTS6). Kind of assay: Inhibition of SETD7 (unknown origin) using Biotin-tagged H4K20me1 and [3H-SAM] as substrate at 1 to 10 uM incubated for 2 hrs by scintillation proximity assay. As to conditions: dose 1-10 µM.
Assay [2] has as its target N-lysine methyltransferase SMYD2 (Homo sapiens) (UniProt Q9NRG4). Kind of assay: Inhibition of SMYD2 (unknown origin) using Biotin-tagged H4K20me1 and [3H-SAM] as substrate at 1 to 10 uM incubated for 2 hrs by scintillation proximity assay. As to conditions: dose 1-10 µM. Background: In a scintillation proximity assay essentially only radioactivity close to the scintillant gives light.

Assay [3] has as its target Fibroblast growth factor receptor 1 (Homo sapiens) (UniProt P11362). Kind of assay: Inhibition of human FGFR1 kinase at 10 uM relative to control.
Assay [4] deals with U2OS. Nature of the assay: Induction of DNA repair in human U2OS cells assessed as inhibition in 53BP1 foci formation at 1 uM measured after 24 hrs in the presence of 10 Gy of ionizing radiation by immunofluorescence analysis. It is filed as functional, cell-based.
Assay [5] concerns the target D(1B) dopamine receptor (Homo sapiens) (UniProt P21918). Kind of assay: Inhibition of human D(5) dopamine receptor expressed in HEK293T cells at 10 uM relative to control. The format is cell-based.
For another assay, the system named is LNCaP. Nature of the assay: Cytotoxicity against human LNCaP cells assessed as cell viability upto 12.5 uM incubated for 48 hrs. It is filed as functional, cell-based.
In assay [6] the target is Histone-lysine N-methyltransferase KMT5B (Homo sapiens) (UniProt Q4FZB7). Nature of the assay: Inhibition of recombinant human 6His-(Tev)-G-SUV420H1 (69 to 335 residues) using Biotin-tagged H4K20me1 and [3H-SAM] as substrate at 10 uM incubated for 2 hrs by scintillation proximity assay.
The target of assay [7] is 3-phosphoinositide-dependent protein kinase 1 (Homo sapiens) (UniProt O15530). Nature of the assay: Inhibition of human PDK1 at 10 uM relative to control.
The test system of assay [8] is HeLa. Nature of the assay: Antiproliferative activity against human HeLa cells assessed as cell population doubling at 1 uM incubated for 80 days. It is filed as functional, cell-based. As to conditions: time 80.0 day.
Assay [9] addresses Histone-lysine N-methyltransferase KMT5B (Homo sapiens) (UniProt Q4FZB7). Kind of assay: Inhibition of recombinant human 6His-(Tev)-G-SUV420H1 (69 to 335 residues) using Biotin-tagged H4K20me1 and [3H-SAM] as substrate at 1 uM incubated for 2 hrs by scintillation proximity assay.
The target of assay [10] is DNMT3A2/3L complex (Homo sapiens) (UniProt Q9Y6K1+Q9UJW3). Nature of the assay: Inhibition of DNMT3A/3L (unknown origin) at 1 to 10 uM incubated for 1 hrs by scintillation proximity assay. It is filed as protein-complex assay. The settings on record: dose 1-10 µM.
Assay [11] has as its target Histone-lysine N-methyltransferase SETDB1 (Homo sapiens) (UniProt Q15047). Kind of assay: Inhibition of SETDB1 (unknown origin) using Biotin-tagged H4K20me1 and [3H-SAM] as substrate at 1 to 10 uM incubated for 2 hrs by scintillation proximity assay. The settings on record: dose 1-10 µM.
The subject of a further assay is MEF. Kind of assay: Antiproliferative activity against mouse MEF cells assessed as increase in H4K20me1 level at 10 uM incubated for 3 days by immunofluorescence analysis. The format is functional, cell-based. As to conditions: time 3.0 day.
The next assay is filed under the species Rattus norvegicus. Kind of assay: Inhibition of Rat alpha 2-Adrenoceptor at 10 uM relative to control.
In assay [12] the target is Cyclin-dependent kinase 2 (Homo sapiens) (UniProt P24941). Kind of assay: Inhibition of human CDK2 at 10 uM relative to control.
The test system of assay [13] is U2OS. Nature of the assay: Antiproliferative activity against human U2OS cells assessed as inhibition in H4K20me3 expression level 21 doublings by Western blot analysis. The format is functional, cell-based.
The subject of assay [14] is HeLa. Nature of the assay: Antiproliferative activity against human HeLa cells assessed as inhibition in H4K20me3 expression level for 21 doublings by Western blot analysis. It is filed as functional, cell-based.
Assay [15] addresses MAP kinase-interacting serine/threonine-protein kinase 2 (Homo sapiens) (UniProt Q9HBH9). Nature of the assay: Inhibition of human MNK2 at 10 uM relative to control.
Assay [16] has as its target Protein arginine N-methyltransferase 7 (Homo sapiens) (UniProt Q9NVM4). Kind of assay: Inhibition of PRMT7 (unknown origin) using Biotin-tagged H4K20me1 and [3H-SAM] as substrate at 1 to 10 uM incubated for 2 hrs by scintillation proximity assay. The settings on record: dose 1-10 µM.
Assay [17] deals with U2OS. Kind of assay: Induction of DNA repair in human U2OS cells expressing I-SceI reporter assessed as decrease in H4K20me2 level by Western blot analysis. It is filed as functional, cell-based. (Immunoblotting shows a protein as a band on a membrane.)
The target in assay [18] is High affinity nerve growth factor receptor (Homo sapiens) (UniProt P04629). Kind of assay: Inhibition of human TRKA at 10 uM relative to control.
For assay [19], the system named is U2OS. Nature of the assay: Inhibition of colony formation in human U2OS cells at 1 uM incubated for 48 hrs in the presence of aphidicolin by cell clonogenic assay. The format is functional, cell-based.
Assay [20] addresses Histone-lysine N-methyltransferase NSD2 (Homo sapiens) (UniProt O96028). Nature of the assay: Inhibition of NSD2 (unknown origin) at 1 to 10 uM incubated for 1 hrs by scintillation proximity assay. As to conditions: dose 1-10 µM.
In assay [21] the test system is U2OS. Kind of assay: Induction of cell cycle arrest in human U2OS cells assessed as decrease in H4K20me3 in S phase at 0.6 to 6 uM by plot analysis. The format is functional, cell-based. The settings on record: dose 0.6-6 µM.
In assay [22] the target is RAF proto-oncogene serine/threonine-protein kinase (Homo sapiens) (UniProt P04049). Kind of assay: Inhibition of human RAF-1 at 10 uM relative to control.
The target in assay [23] is Histone-lysine N-methyltransferase EZH2 (Homo sapiens) (UniProt Q15910). Nature of the assay: Inhibition of EZH2 (unknown origin) using Biotin-tagged H4K20me1 and [3H-SAM] as substrate at 1 to 10 uM incubated for 2 hrs by scintillation proximity assay. As to conditions: dose 1-10 µM.
For assay [24], the target named is Histone-lysine N-methyltransferase EHMT2 (Homo sapiens) (UniProt Q96KQ7). Nature of the assay: Inhibition of G9a (unknown origin) using Biotin-tagged H4K20me1 and [3H-SAM] as substrate at 1 to 10 uM incubated for 2 hrs by scintillation proximity assay. The settings on record: dose 1-10 µM.
In assay [25] the target is Calcium/calmodulin-dependent protein kinase type II subunit alpha (Homo sapiens) (UniProt Q9UQM7). Nature of the assay: Inhibition of human CaMK2alpha at 10 uM relative to control.
The target of assay [26] is Protein arginine N-methyltransferase 3 (Homo sapiens) (UniProt O60678). Nature of the assay: Inhibition of PRMT3 (unknown origin) using Biotin-tagged H4K20me1 and [3H-SAM] as substrate at 1 to 10 uM incubated for 2 hrs by scintillation proximity assay. As to conditions: dose 1-10 µM.
A further assay is filed under the species Homo sapiens. Nature of the assay: Inhibition of human Gastric receptor I at 10 uM relative to control.
Assay [27] concerns the target Histone-lysine N-methyltransferase KMT5B (Homo sapiens) (UniProt Q4FZB7). Nature of the assay: Inhibition of recombinant human 6His-(Tev)-G-SUV420H1 (69 to 335 residues) using Biotin-tagged H4K20me1 and [3H-SAM] as substrate incubated for 2 hrs by scintillation proximity assay.
In assay [28] the target is Histone-lysine N-methyltransferase KMT5C (Homo sapiens) (UniProt Q86Y97). Kind of assay: Inhibition of human SUV420H2 using Biotin-tagged H4K20me1 and [3H-SAM] as substrate incubated for 2 hrs by scintillation proximity assay.
The test system of assay [29] is U2OS. Nature of the assay: Inhibition of H4K20me3 in human U2OS cells assessed as change in methylation level at 10 uM incubated for 48 hrs by Western blotting analysis. It is filed as functional, cell-based.
The target of assay [30] is 5-hydroxytryptamine receptor 1E (Homo sapiens) (UniProt P28566). Kind of assay: Inhibition of human 5-ht1e in stable HEK cells at 10 uM relative to control. The format is cell-based.

The structures appear in SMILES notation. Activity calls are given as the source filed them. The calls are words filed in the database; no cut-off is given here.

Sequence of Histone-lysine N-methyltransferase KMT5B (Homo sapiens) (Q4FZB7 whole entry, looked up, the tested form may be a part): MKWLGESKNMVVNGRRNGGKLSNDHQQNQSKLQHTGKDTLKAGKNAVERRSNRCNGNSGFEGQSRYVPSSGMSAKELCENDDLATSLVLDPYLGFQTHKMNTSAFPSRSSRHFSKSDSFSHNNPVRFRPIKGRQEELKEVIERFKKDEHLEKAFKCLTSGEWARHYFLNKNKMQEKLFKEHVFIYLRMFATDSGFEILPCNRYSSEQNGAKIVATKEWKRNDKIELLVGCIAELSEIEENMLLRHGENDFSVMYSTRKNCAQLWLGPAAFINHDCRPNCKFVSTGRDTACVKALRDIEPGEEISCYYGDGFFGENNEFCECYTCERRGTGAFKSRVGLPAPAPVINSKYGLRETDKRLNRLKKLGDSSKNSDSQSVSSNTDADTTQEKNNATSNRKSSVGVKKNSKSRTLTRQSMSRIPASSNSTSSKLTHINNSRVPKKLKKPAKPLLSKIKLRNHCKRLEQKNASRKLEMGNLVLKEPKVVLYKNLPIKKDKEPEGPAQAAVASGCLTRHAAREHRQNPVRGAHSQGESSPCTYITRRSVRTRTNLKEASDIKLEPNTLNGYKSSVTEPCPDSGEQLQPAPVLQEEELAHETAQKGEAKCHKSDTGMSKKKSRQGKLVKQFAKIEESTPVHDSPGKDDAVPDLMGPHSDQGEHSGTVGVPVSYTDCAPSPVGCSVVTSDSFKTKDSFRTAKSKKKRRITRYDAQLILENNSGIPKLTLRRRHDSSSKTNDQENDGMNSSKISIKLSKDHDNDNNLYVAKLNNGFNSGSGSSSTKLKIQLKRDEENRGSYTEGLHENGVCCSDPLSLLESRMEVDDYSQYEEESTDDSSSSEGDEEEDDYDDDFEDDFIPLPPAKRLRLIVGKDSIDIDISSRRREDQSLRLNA
Sequence of DNMT3A2/3L complex (Homo sapiens) (Q9UJW3 whole entry, looked up): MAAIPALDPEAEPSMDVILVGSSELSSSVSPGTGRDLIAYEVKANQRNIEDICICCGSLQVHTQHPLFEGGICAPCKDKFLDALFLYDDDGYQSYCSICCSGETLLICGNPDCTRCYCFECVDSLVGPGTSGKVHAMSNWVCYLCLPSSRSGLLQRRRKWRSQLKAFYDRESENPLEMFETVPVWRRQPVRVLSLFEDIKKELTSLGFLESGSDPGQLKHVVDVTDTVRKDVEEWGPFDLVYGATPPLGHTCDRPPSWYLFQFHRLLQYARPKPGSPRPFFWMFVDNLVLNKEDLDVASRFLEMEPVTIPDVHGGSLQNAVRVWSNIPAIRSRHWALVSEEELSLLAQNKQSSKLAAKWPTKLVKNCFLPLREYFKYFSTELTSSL
Sequence of DNMT3A2/3L complex (Homo sapiens) (Q9Y6K1 whole entry, looked up): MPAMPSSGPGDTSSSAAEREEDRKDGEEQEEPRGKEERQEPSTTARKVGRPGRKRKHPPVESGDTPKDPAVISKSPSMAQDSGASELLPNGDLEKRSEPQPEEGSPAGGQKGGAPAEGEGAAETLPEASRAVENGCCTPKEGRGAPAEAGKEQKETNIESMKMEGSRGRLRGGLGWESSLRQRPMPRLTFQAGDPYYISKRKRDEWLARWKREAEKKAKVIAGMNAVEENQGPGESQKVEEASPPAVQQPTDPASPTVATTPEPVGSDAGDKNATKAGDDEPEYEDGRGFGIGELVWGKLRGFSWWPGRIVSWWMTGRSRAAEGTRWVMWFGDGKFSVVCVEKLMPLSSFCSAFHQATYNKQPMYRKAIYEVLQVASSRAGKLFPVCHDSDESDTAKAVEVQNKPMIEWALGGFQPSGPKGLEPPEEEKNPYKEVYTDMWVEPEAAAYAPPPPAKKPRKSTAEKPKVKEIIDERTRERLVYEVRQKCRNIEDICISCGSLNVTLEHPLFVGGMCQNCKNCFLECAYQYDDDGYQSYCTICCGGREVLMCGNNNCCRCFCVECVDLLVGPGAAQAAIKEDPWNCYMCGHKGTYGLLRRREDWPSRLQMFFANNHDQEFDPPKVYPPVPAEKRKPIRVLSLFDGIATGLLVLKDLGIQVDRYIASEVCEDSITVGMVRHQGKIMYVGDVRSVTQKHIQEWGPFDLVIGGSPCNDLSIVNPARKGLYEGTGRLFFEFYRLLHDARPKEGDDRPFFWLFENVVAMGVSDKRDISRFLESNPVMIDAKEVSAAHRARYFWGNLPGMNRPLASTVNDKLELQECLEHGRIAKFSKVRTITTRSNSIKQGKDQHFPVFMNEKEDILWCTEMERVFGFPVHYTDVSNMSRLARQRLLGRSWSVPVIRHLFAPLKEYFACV
Sequence of Histone-lysine N-methyltransferase KMT5C (Homo sapiens) (Q86Y97 whole entry, looked up): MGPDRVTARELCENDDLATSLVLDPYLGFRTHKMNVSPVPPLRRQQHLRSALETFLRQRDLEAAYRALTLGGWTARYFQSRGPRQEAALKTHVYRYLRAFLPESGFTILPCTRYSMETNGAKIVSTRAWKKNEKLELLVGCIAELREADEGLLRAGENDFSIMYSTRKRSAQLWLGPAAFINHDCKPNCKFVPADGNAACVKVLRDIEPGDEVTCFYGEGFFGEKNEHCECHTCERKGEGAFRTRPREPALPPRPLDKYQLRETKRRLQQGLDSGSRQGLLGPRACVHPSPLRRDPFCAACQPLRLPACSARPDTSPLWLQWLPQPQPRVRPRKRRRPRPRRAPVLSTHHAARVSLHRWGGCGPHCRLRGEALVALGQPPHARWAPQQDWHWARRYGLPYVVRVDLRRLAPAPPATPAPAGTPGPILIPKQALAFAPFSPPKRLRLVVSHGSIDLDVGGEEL
Sequence of N-lysine methyltransferase SMYD2 (Homo sapiens) (Q9NRG4 whole entry): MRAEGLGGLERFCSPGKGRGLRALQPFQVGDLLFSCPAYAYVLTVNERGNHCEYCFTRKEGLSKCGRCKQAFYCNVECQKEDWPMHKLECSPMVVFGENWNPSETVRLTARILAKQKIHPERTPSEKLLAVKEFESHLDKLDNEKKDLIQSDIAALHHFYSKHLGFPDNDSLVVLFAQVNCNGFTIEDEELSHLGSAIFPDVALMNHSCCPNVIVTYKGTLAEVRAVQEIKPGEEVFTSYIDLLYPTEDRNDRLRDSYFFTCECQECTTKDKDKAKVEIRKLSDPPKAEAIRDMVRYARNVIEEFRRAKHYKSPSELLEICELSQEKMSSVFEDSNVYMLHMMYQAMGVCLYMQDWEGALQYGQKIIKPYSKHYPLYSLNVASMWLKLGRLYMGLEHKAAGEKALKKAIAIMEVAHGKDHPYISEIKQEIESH
Sequence of Histone-lysine N-methyltransferase NSD2 (Homo sapiens) (O96028 whole entry): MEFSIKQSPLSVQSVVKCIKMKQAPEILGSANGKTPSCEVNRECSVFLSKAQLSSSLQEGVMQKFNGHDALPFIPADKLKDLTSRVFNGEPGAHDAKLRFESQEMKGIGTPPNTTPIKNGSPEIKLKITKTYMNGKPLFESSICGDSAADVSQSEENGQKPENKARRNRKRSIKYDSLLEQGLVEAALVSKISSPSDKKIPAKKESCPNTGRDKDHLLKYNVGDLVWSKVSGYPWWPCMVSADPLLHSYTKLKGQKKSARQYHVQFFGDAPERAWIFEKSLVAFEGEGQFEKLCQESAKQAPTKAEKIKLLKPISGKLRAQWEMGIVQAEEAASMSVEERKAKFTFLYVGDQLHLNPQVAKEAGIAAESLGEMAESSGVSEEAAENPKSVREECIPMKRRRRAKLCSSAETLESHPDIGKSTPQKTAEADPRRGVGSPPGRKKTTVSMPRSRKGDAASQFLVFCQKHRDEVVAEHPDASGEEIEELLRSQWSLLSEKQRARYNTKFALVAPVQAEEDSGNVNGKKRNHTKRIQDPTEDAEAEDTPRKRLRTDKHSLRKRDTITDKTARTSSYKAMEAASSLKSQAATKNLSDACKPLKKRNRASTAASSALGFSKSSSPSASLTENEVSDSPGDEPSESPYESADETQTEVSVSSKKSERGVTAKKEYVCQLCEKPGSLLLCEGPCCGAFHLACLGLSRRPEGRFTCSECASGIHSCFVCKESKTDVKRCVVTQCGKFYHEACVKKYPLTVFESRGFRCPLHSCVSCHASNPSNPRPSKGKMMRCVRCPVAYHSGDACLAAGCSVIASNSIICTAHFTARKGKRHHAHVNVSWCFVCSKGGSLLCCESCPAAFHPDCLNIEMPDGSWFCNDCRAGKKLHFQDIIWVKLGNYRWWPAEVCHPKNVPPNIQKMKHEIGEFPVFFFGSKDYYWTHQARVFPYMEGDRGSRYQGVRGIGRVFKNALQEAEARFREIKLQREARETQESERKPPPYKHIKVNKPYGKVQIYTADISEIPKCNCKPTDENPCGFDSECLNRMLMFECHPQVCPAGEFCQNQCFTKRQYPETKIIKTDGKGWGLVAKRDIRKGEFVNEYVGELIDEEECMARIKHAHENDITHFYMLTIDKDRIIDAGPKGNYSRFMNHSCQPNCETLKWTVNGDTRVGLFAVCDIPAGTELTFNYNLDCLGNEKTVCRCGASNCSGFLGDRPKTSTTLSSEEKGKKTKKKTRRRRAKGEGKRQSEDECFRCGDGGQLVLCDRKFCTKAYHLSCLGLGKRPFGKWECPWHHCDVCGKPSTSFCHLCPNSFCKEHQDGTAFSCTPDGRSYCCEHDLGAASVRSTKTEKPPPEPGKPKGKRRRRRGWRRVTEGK
Sequence of D(1B) dopamine receptor (Homo sapiens) (P21918 whole entry): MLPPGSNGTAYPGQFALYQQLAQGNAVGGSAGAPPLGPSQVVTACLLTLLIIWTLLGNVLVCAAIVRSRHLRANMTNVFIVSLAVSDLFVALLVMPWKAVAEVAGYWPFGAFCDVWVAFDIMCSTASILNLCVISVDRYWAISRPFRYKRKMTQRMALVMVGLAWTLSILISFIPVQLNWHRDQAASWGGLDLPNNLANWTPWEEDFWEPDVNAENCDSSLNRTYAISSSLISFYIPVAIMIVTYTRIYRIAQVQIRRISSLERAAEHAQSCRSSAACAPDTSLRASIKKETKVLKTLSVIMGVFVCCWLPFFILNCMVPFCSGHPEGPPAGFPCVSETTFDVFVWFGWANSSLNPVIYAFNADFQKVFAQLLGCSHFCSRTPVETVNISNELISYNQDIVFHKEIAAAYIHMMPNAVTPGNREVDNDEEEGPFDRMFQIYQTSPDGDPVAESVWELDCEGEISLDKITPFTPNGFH

As usually defined, the inhibition is the relative decrease from the control value, in per cent. `Clc1cc2c(NC3CCCC3)nnc(-c3ccncc3)c2cc1Cl`: the inhibition result in assay [1], in assay [2], in assay [10], in [11], in assay [16] and in assay [20] was “inactive” throughout. Moreover, the inhibition entry in [23], in assay [24] and in assay [26] was “inactive” in each case. The inhibition in [3] was -8%; in assay [5] it was -4%; in assay [7] it was -7%; in the assay filed under Rattus norvegicus it was 5%; in assay [12], -1%; in assay [15] it was 7%. Besides, the inhibition was 1% in assay [18], 8% in assay [22] and -5% in assay [25]. The inhibition entry (in the assay on U2OS [4]; in [6]; in assay [9]; with U2OS [19]) was “Active” in each case. The outcome with LNCaP, in the assay with HeLa [8], in the assay with MEF, in the assay on U2OS [13], with HeLa [14] and in the assay on U2OS [17] was Active. In addition, the outcome with U2OS [21] was Active.

Regarding `O=C(c1nnc(NC2CCCC2)c2cc(Cl)c(Cl)cc12)N1CCC(O)CC1`, the inhibition in the assay filed under Homo sapiens is -5%; in [30], 10%. In addition, the inhibition entry in assay [27] and in assay [28] was “inactive” in each case. In the assay on U2OS [29], the result was inactive.

Source of the values: ChEMBL document CHEMBL5649167, “The SUV4-20 inhibitor A-196 verifies a role for epigenetics in genomic integrity” (Nat Chem Biol, 2017).
